One data set addresses T1, vanilloid receptor (Rattus norvegicus, UniProt O35433).
T1 construct: DRG nerve cells from the primary culture of 2 days were equilibrated by washing 4 times; endogenous in cells; host or cells: primary culture of dorsal root ganglion neurons from neonatal SD rats
Nature of the data set: 45Ca influx test (calcium uptake) in primary cultured DRG neurons, capsaicin 0.5 μM. In kind it is cell-based. The procedure: 1) Separation of Spinal Dorsal Root Ganglia (DRG) in Newborn Rats and Primary Culture Thereof
Neonatal (2-3 day old or younger than 2-3 day old) SD rats were put in ice for 5 minutes to anesthetize and disinfected with 70% ethanol. […] The DRG were incubated sequentially at 37° C. for 30 mins in 200 U/ml collagenase and 2.5 mg/ml trypsin, separately. The ganglia were washed twice with DME/F12 medium supplemented with 10% horse serum, triturated through a fire-polished Pasteur pipette, filtered through Nitex 80 membrane to obtain single cell suspension and the suspension was washed once more. This was subjected to centrifugation, then resuspended in cell culture medium at certain level of cell density. As the cell culture medium, DME/F12 medium supplemented with 10% horse serum was diluted with identical medium conditioned by C6 glioma cells 2 days on a confluent monolayer (1:1), and NGF (Nerve Growth Factor) was added to adjust 200 ng/ml as final concentration. After the cells were grown 2 days in medium where cytosine arabinoside (Ara-C, 100 μM) was added to kill dividing nonneuronal cells, medium was changed to one without Ara-C. The resuspended cells were plated at a density of 1500-2000 neurons/well onto Terasaki plates previously coated with 10 μg/ml poly-D-ornithine.
2) ^45Ca Influx Experiments
DRG nerve cells from the primary culture of 2 days were equilibrated by washing 4 times with HEPES (10 mM, pH 7.4)-buffered Ca^2+, Mg^2+-free HBSS (H-HBSS). The solution in each well was removed from the individual well. Medium containing the test compound plus capsaicin (final concentration 0.5 μM) and ^45Ca (final concentration 10 μCi/ml) in H-HBSS was added to each well and incubated at room temperature for 10 mins. Terasaki plates were washed five times with H-HBSS and dried at room temperature. To each well, 0.3% SDS (10 μl) was added to elute ^45Ca. After the addition of scintillation cocktail of into each well, the amount of ^45Ca influx into neuron was measured by counting radioactivity.

Data set [1] in a line: PK study in rats, single oral administration. Set-up: AUC: concentration or dose not given beside the values. The following applies: for Cmax / AUC / Tmax / half-life: rat, single oral administration, plasma. In kind it is in vivo, rat. The procedure: Pharmacokinetics of compounds in rats were analyzed using the following experiment. Rats were fasted overnight prior to administration and until approximately 4 hours after administration. Rats were given a single oral administration of compound at same dose. Administration volume was 10 ml/kg. Blood samples were collected from the retro-orbital sinus at various times over the following 7 hrs. Immediately after each collection, plasmas were separated from blood cells by centrifugation and stored at −20° C. until the analysis was performed. The plasma samples were analyzed using a reverse phase high-performance chromatography (HPLC) method.

The mark [2] stands for this setting: Table 3, detection limit 0.100 mcg/ml.
Setting [3] is: comparison with comparative compounds F and G, read-out: IC50 value.
Setting [4] is: Table 4, detection limit 0.100 mcg/ml.
Setting [5] is: rat DRG neurons, capsaicin 0.5 μM, 45Ca, read-out: Antagonist Calcium Uptake Test (IC50).
Setting [6] is: Table 2, read-out: T½ (converted).

The structures appear in SMILES notation. pIC50: −log10 of the molar value. Read-outs that look alike come from different tables or passages of the source.

T1 sequence (O35433 whole entry): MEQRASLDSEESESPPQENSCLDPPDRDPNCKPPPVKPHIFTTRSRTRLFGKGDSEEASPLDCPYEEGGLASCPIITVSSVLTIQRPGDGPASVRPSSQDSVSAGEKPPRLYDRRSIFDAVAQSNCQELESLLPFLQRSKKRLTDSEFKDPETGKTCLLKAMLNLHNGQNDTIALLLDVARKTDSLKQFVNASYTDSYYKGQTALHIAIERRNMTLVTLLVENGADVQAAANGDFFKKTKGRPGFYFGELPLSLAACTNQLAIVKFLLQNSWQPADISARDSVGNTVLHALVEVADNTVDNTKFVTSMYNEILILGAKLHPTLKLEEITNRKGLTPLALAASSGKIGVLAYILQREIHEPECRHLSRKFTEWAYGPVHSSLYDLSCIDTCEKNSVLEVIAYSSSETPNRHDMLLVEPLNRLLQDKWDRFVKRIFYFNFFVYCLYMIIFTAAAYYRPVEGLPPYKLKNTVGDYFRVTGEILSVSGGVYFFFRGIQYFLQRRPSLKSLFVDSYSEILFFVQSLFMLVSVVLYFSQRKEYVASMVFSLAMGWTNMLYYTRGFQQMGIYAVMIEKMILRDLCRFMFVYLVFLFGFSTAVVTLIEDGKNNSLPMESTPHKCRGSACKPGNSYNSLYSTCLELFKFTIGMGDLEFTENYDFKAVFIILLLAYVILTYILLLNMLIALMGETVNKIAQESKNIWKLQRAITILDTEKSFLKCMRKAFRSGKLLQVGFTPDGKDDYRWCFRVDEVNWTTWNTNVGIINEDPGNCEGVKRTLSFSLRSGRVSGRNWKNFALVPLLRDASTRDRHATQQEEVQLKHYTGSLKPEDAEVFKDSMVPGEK

The term pIC50 denotes −log10 of the IC50, conventionally taken in molar units. In general, Cmax refers to the maximum level reached in the sampled fluid or tissue. As for `CCCc1cc(C(C)(C)C)ccc1/C=C/C(=O)N[C@H](C)c1cc(F)c(NS(C)(=O)=O)c(F)c1` [Comp Cpd E, reference compound], on vanilloid receptor (Table 3, comparative compounds having tert-butyl-phenyl, read-out: IC50), the pIC50 is 5.64. Also, the Cmax in data set [1] (setting [2]) was under 100 ng/mL.
Turning to `C[C@@H](NC(=O)/C=C/c1ccc(C(F)(F)F)cc1)c1cc(F)c(NS(C)(=O)=O)c(F)c1` [Comp Cpd G, reference compound], the pIC50 on vanilloid receptor (Table 4, comparative compounds having CF3-phenyl, read-out: IC50) is under 5.00; at vanilloid receptor (setting [3]), under 5.00. Besides, the “PK properties (in terms of T max and AUC)” value in data set [1] (oral, in words) is given as “poor PK-properties”. In data set [1] (setting [4]), this compound gave a Cmax of under 100 ng/mL.
What is called AUC is concentration integrated over time. As a reminder, the Tmax is the time at which the peak concentration occurs. On to `CCCNc1cc(C(F)(F)F)ccc1/C=C/C(=O)N[C@H](C)c1cc(F)c(NS(C)(=O)=O)c(F)c1` [Example 1, (R)—N-[1-(3,5-Difluoro-4-methanesulfonylamino-phenyl)-ethyl]-3-(2-propylamino-4-trifluoromethyl-phenyl)-acrylamide], for which the pIC50 at vanilloid receptor (setting [5]) is 7.72. In data set [1] (Table 2), the AUC is 1940 ng·h/mL, the Cmax stood at 466 ng/mL and the Tmax was determined as 3.5 h. Moreover, the half-life in data set [1] (setting [6]) was 1.4 h.
On the same counts, the results for `CCCc1cc(C(F)(F)F)ccc1/C=C/C(=O)N[C@H](C)c1cc(F)c(NS(C)(=O)=O)c(F)c1` [Example 21, N-[1-(3,5-Difluoro-4-methanesulfonylamino-phenyl)-ethyl]-3-(2-propyl-4-trifluoromethyl-phenyl)-acrylamide] are 7.72, 16400 ng·h/mL, 2720 ng/mL, 2 h and 3.5 h.
In turn, `C=Cc1cc(CNC(=O)/C=C/c2ccc(C(C)(C)C)cc2NC(C)C)cc(F)c1NS(C)(=O)=O` [Comp Cpd C, reference compound] showed a Cmax in data set [1] (setting [2]) of under 100 ng/mL.
As for `CCCOc1cc(C(F)(F)F)ccc1/C=C/C(=O)N[C@H](C)c1cc(F)c(NS(C)(=O)=O)c(F)c1` [Example 5, (R)—N-[1-(3,5-Difluoro-4-methanesulfonylamino-phenyl)-ethyl]-3-(2-propoxy-4-trifluoromethyl-phenyl)-acrylamide], the pIC50 at vanilloid receptor (setting [5]) is 6.92. In addition, in data set [1] (Table 2), the AUC amounted to 22500 ng·h/mL, the Cmax was determined as 2630 ng/mL and the Tmax was 3.5 h. The half-life in data set [1] (setting [6]) is 4.3 h.
As for `CC(C)(C)c1ccc(/C=C/C(=O)NCc2cc(F)c(NS(C)(=O)=O)c(F)c2)cc1` [Comp Cpd B, reference compound], in data set [1] (Table 3), the AUC is 72 ng·h/mL and the Tmax amounted to 0.5 h. This compound had a Cmax in data set [1] (setting [2]) of 69 ng/mL. Also, the half-life in data set [1] (Table 3, read-out: T½ (converted)) was 0.462 h.
For `C=Cc1cc(CNC(=O)/C=C/c2ccc(C(F)(F)F)cc2)ccc1NS(C)(=O)=O` [Comp Cpd F, reference compound], on vanilloid receptor (setting [3]), the pIC50 is 6.24. Besides, in data set [1] (Table 4), the AUC is 40100 ng·h/mL and the Tmax is 2 h. Also, the highest level in data set [1] (setting [4]) (Cmax) was 5000 ng/mL. For the same compound, the half-life in data set [1] (Table 4, read-out: T1/2 (converted)) was 4.59 h.
On to `CCCCc1cc(C(F)(F)F)ccc1/C=C/C(=O)N[C@H](C)c1cc(F)c(NS(C)(=O)=O)c(F)c1` [Example 24, (R)-3-(2-Butyl-4-trifluoromethyl-phenyl)-N-[1-(3,5-difluoro-4-methanesulfonylamino-phenyl)-ethyl]-acrylamide], for which, at vanilloid receptor (setting [5]), the pIC50 was 7.36. For the same compound, in data set [1] (Table 2), the AUC came out at 5690 ng·h/mL, the Cmax stood at 1190 ng/mL and the Tmax worked out at 2 h. Also, the half-life in data set [1] (setting [6]) was 2.08 h.
For the compound `CCCc1cc(C(F)(F)F)ccc1/C=C/C(=O)NCc1cc(F)c(NS(C)(=O)=O)c(F)c1` [Example 22, N-(3,5-Difluoro-4-methanesulfonylamino-benzyl)-3-(2-propyl-4-trifluoromethyl-phenyl)-acrylamide], on vanilloid receptor (setting [5]), the pIC50 was 6.80. In data set [1] (Table 2), the AUC was 19200 ng·h/mL, the Cmax came out at 3660 ng/mL and the Tmax amounted to 2 h. Moreover, the half-life in data set [1] (setting [6]) is 2.58 h.
In the case of `CCOc1cc(C(F)(F)F)ccc1/C=C/C(=O)N[C@H](C)c1ccc(NS(C)(=O)=O)c(F)c1` [Example 9, (R)—N-[1-(3-Fluoro-4-methanesulfonylamino-phenyl)-ethyl]-3-(2-ethoxy-4-trifluoromethyl-phenyl)-acrylamide], on vanilloid receptor (setting [5]), the pIC50 is 6.47.
As to `C=Cc1cc(CNC(=O)/C=C/c2ccc(C(F)(F)F)cc2NCCC)cc(F)c1NS(C)(=O)=O` [Example 12, N-(3-Fluoro-4-methanesulfonylamino-5-vinyl-benzyl)-3-(2-propylamino-4-trifluoromethyl-phenyl)-acrylamide], on vanilloid receptor (setting [3]), the pIC50 is 6.82.
With `CCc1cc(C(F)(F)F)cc(CC)c1/C=C/C(=O)N[C@H](C)c1cc(F)c(NS(C)(=O)=O)c(F)c1` [Example 17], the pIC50 on vanilloid receptor (setting [5]) was 6.85.
Turning to `CCNc1cc(F)ccc1/C=C/C(=O)NCc1cc(F)c(NS(C)(=O)=O)c(F)c1` [Example 43, N-(3,5-Difluoro-4-methanesulfonylaminobenzyl)-3-(4-fluoro-2-ethylaminophenyl)acrylamide], the pIC50 on vanilloid receptor (setting [5]) is 6.49.
For the compound `CC(C)Oc1cc(C(F)(F)F)ccc1/C=C/C(=O)N[C@H](C)c1cc(F)c(NS(C)(=O)=O)c(F)c1` [Example 26, (R)—N-[1-(3,5-Difluoro-4-methanesulfonylamino-phenyl)-ethyl]-3-(2-isopropoxy-4-trifluoromethyl-phenyl)-acrylamide], the pIC50 at vanilloid receptor (setting [5]) was 7.33.
The same measure, in the same setting: the value for `CCCc1cc(C(F)(F)F)ccc1/C=C(\C)C(=O)N[C@H](C)c1cc(F)c(NS(C)(=O)=O)c(F)c1` [Example 48, (R)—N-[1-(3,5-Difluoro-4-methanesulfonylamino-phenyl)-ethyl]-2-methyl-3-(2-propyl-4-trifluoromethyl-phenyl)-acrylamide] was 6.28; that for `CCCc1cc(F)ccc1/C=C/C(=O)N[C@H](C)c1cc(F)c(NS(C)(=O)=O)c(F)c1` [Example 53, (R)—N-[1-(3,5-Difluoro-4-methanesulfonylamino-phenyl)-ethyl]-3-(4-fluoro-2-propyl-phenyl)-acrylamide] was 6.77; that for `CCCNc1cc(C(F)(F)F)ccc1/C=C/C(=O)NCc1cc(C)c(NS(C)(=O)=O)c(F)c1` [Example 11, N-(3-Fluoro-4-methanesulfonylamino-5-methyl-benzyl)-3-(2-propylamino-4-trifluoromethyl-phenyl)-acrylamide] was 7.21.
The same measure, in the same setting: the value for `CCNc1cc(C(F)(F)F)ccc1/C=C/C(=O)NCc1cc(C)c(NS(C)(=O)=O)c(F)c1` [Example 19, 3-(2-Ethylamino-4-trifluoromethyl-phenyl)-N-(3-fluoro-4-methanesulfonylamino-5-methyl-benzyl)-acrylamide] was 6.80; that for `CCCCOc1cc(C(F)(F)F)ccc1/C=C/C(=O)NCc1cc(F)c(NS(C)(=O)=O)c(F)c1` [Example 32, 3-(2-Butoxy-4-trifluoromethyl-phenyl)-N-(3,5-difluoro-4-methanesulfonylamino-benzyl)-acrylamide] was 5.66; that for `CC(C)Cc1cc(C(F)(F)F)ccc1/C=C/C(=O)N[C@H](C)c1cc(F)c(NS(C)(=O)=O)c(F)c1` [Example 47, (R)—N-[1-(3,5-Difluoro-4-methanesulfonylamino-phenyl)-ethyl]-3-(2-isobutyl-4-trifluoromethyl-phenyl)-acrylamide] was 7.03.
`C=Cc1cc(CNC(=O)/C=C/c2ccc(C(C)(C)C)cc2)cc(F)c1NS(C)(=O)=O` [Comp Cpd A, reference compound] gave a Cmax in data set [1] (setting [2]) of under 100 ng/mL.

The values above are taken from US8557872B2, “Compounds, isomer thereof, or pharmaceutically acceptable salts thereof as vanilloid receptor antagonist; and pharmaceutical compositions containing the same” (Amorepacific Corporation, priority 2008, dated 2013).
